Earlier results, collected in publication PMC8583936, “Machine Learning Assisted Approach for Finding Novel High Activity Agonists of Human Ectopic Olfactory Receptors” (International Journal of Molecular Sciences, 2021).
Counter-ions that a name gives are not always drawn. Like-named read-outs stand apart in the source and are kept apart here.

Experiments:
OR1A1 = biological target: T1, OR1A1 (Homo sapiens, UniProt Q9P1Q5); details: cited from earlier work
T1 sequence (Q9P1Q5 1-309): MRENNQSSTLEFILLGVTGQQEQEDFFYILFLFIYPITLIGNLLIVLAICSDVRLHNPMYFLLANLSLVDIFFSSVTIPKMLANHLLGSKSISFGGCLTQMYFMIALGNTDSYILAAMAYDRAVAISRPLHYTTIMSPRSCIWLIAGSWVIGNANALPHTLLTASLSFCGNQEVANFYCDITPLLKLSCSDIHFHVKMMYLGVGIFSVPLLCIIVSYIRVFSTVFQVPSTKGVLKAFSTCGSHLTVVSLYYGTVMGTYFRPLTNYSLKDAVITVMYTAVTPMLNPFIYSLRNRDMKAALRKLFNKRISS

OR2W1 = biological target: T2, OR2W1 (Homo sapiens, UniProt Q9Y3N9); details: cited from earlier work
T2 sequence (Q9Y3N9 1-320): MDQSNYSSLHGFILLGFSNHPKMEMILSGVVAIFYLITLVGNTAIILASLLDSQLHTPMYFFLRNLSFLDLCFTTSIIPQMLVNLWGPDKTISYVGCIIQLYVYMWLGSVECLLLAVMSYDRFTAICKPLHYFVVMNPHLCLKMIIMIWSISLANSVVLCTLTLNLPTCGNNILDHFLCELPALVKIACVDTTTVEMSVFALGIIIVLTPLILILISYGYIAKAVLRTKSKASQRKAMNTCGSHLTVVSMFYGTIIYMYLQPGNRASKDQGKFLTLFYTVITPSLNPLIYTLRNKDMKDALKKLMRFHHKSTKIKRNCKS

[1] = Table S1, ref Supplement references [1]-[9] as printed after each odorant name
[2] = Table S2, ref Supplement references [2]-[12] as printed after each odorant name

Row | SMILES | Class (agonist / non-agonist / conflicting info.) for OR1A1 (OR1A1; [1]) | Class (agonist / non-agonist / antagonist / conflicting info.) for OR2W1 (OR2W1; [2]) | Class (agonist / non-agonist / conflicting info.) for OR1A1 (OR1A1) | Class (agonist / non-agonist / antagonist / conflicting info.) for OR2W1 (OR2W1)
1 | CCCCCCC1CCC(=O)O1 (stereo not shown) [5-Hexyloxolan-2-one] | Non-agonist | Non-agonist |  | 
2 | CCCCCCCCC1CCC(=O)O1 (stereo not shown) [5-Octyloxolan-2-one] | Non-agonist | Non-agonist |  | 
3 | CCCCCC1CCC(=O)O1 (stereo not shown) [5-Pentyloxolan-2-one] | Agonist | Non-agonist |  | 
4 | CCCC1CCCC(=O)O1 (stereo not shown) [6-Propyloxan-2-one] | Non-agonist | Non-agonist |  | 
5 | COc1ccc2ccc(=O)oc2c1 [7-methoxycoumarin] | Non-agonist | Non-agonist |  | 
6 | CC(C)CCCCCCCCCCC=O [12-methyltridecanal] | Non-agonist | Non-agonist |  | 
7 | CC/C=C\CC/C=C/CO [(2E,6Z)-Nona-2,6-dien-1-ol] | Non-agonist | Non-agonist |  | 
8 | CCCCC[C@H](C)O [(+)-2-heptanol] | Non-agonist | Non-agonist |  | 
9 | CC12CCC(CC1=O)C2(C)C (stereo not drawn) [(+)-Camphor] | Non-agonist | Non-agonist |  | 
10 | C=C(C)[C@H]1CC=C(C)C(=O)C1 [(+)-Carvone] | Agonist | Agonist |  | 
11 | C=C(C)[C@@H]1CC[C@@H](C)C(=O)C1 [(+)-Dihydrocarvone] | Agonist | Agonist |  | 
12 | CC(C)=C1CC[C@@H](C)CC1=O [(+)-Pulegone] |  |  | Non-agonist | Non-agonist
13 | C=C1CC[C@]2(C(C)C)C[C@H]12 [(+)-Sabinene] | Non-agonist | Non-agonist |  | 
14 | CC1(C)[C@H]2CC[C@]1(C)C(=O)C2 [(-)-Camphor] | Non-agonist | Non-agonist |  | 
15 | CCCC/C=C/C=O [(E)-2-heptenal] | Non-agonist | Agonist |  | 
16 | CCCCCC[C@@H](C)O [(R)-(-)-2-octanol] | Non-agonist | Non-agonist |  | 
17 | CCCCCC[C@H](C)O [(S)-(+)-2-octanol] | Non-agonist | Non-agonist |  | 
18 | CCOC(C)OCC [Acetal] | Non-agonist | Non-agonist |  | 
19 | CC=O [Acetaldehyde] |  |  | Non-agonist | Non-agonist
20 | CC(=O)O [Acetic acid] | Non-agonist | Non-agonist |  | 
21 | CC(=O)C(C)O (stereo not shown) [Acetoin] | Non-agonist | Non-agonist |  | 
22 | CC(=O)c1ccccc1 [Acetophenone] |  |  | Non-agonist | Agonist
23 | C=CCc1ccccc1 [Allyl benzene] |  |  | Non-agonist | Non-agonist
24 | C=CCSSCC=C [Allyl disulfide] |  |  | Non-agonist | Non-agonist
25 | C=CCOC(=O)CCCCCC [Allyl heptanoate] |  |  | Agonist | Non-agonist
26 | C=CCSC [Allyl methyl sulfide] | Non-agonist | Non-agonist |  | 
27 | C=CCOC(=O)Cc1ccccc1 [Allyl phenylacetate] |  |  | Agonist | Agonist

Row | SMILES | Class (agonist / non-agonist / conflicting info.) for OR1A1 (OR1A1; [1]) | Class (agonist / non-agonist / antagonist / conflicting info.) for OR2W1 (OR2W1; [2]) | Class (agonist / non-agonist / conflicting info.) for OR1A1 (OR1A1) | Class (agonist / non-agonist / antagonist / conflicting info.) for OR2W1 (OR2W1)
28 | CC1=CC[C@H](C(C)C)C=C1 [Alpha-phellandrene] | Non-agonist | Non-agonist |  | 
29 | CCCCCOC(=O)CCC [Amyl butyrate] | Conflicting info. | Non-agonist |  | 
30 | CCCCCOC(=O)CCCCC [Amyl hexanoate] | Conflicting info. | Non-agonist |  | 
31 | C[C@@]12C=CC[C@H]1[C@@H]1CCC3=CC(=O)CC[C@]3(C)[C@H]1CC2 [Androstadienone] |  |  | Agonist | Antagonist
32 | C[C@]12CCC(=O)C[C@@H]1CC[C@@H]1[C@@H]2CC[C@]2(C)C=CC[C@@H]12 [Androstenone] |  |  | Conflicting info. | Antagonist
33 | COc1ccc(C=O)cc1 [Anisaldehyde] | Non-agonist | Non-agonist |  | 
34 | c1ccccc1 [Benzene] | Conflicting info. | Non-agonist |  | 
35 | CC(=O)OCc1ccccc1 [Benzyl acetate] | Agonist | Agonist |  | 
36 | C/C=C/C(=O)C1=C(C)CCCC1(C)C [Beta-damascone] | Conflicting info. | Non-agonist |  | 
37 | CSCSC [Bis(methylthio)methane] |  |  | Non-agonist | Non-agonist
38 | CCCC=O [Butanal] | Non-agonist | Non-agonist |  | 
39 | CCCCOC(C)=O [Butyl acetate] | Non-agonist | Non-agonist |  | 
40 | CCCCOC(=O)c1ccccc1N [Butyl anthranilate] |  |  | Agonist | Agonist
41 | CCCCOC(=O)C(C)OC(=O)CCC (stereo not shown) [Butyl butyryl lactate] | Non-agonist | Non-agonist |  | 
42 | CCCCOC=O [Butyl formate] | Conflicting info. | Conflicting info. |  | 
43 | CCCCCCC(=O)OCCCC [Butyl heptanoate] | Non-agonist | Non-agonist |  | 
44 | CCCC(=O)O [Butyric acid] | Conflicting info. | Conflicting info. |  | 
45 | O=C/C=C/c1ccccc1 [Cinnamaldehyde] | Agonist | Non-agonist |  | 
46 | CC(=O)OC/C=C/c1ccccc1 [Cinnamyl acetate] | Non-agonist | Agonist |  | 
47 | OCC=Cc1ccccc1 [Cinnamyl alcohol] | Non-agonist | Non-agonist |  | 
48 | CC/C=C\CCO [Cis-3-hexen-1-ol] | Conflicting info. | Conflicting info. |  | 
49 | CC(C)=CCC/C(C)=C/C=O [Citral] |  |  | Conflicting info. | Conflicting info.
50 | O=c1ccc2ccccc2o1 [Coumarin] | Non-agonist | Conflicting info. |  | 
51 | CC(C)c1ccc(C=O)cc1 [Cuminaldehyde] | Non-agonist | Non-agonist |  | 
52 | O=C1CCCCC1 [Cyclohexanone] | Non-agonist | Non-agonist |  | 
53 | C/C=C/C(=O)C1=C(C)C=CCC1(C)C [Damascenone] | Non-agonist | Non-agonist |  | 
